From patent US6337314B1, “Mammalian-derived peptides for the treatment of microbial infections” (Theragem, Inc., priority 1997, dated 2002)
Read-outs that look alike come from different tables or passages of the source. Marks after values point to notes of the source that are not given here. No end group written: not given here.

Assays:
Type in all cases: cell-based
Candida albicans = test system: Candida albicans
Description: (§1) Staphylococcus aureus was strain RN6390, Pseudomonas aeruginosa was strain PA01, Escherichia coli was strain MC4100, Streptococcus faecalis was ATCC 8043 and Candida albicans was a clinical isolate from the Presbyterian Hospital.
B. Radial diffusion assay
The fungus is grown for 3 hrs from an overnight culture in Sabouraud dextrose broth, centrifuged at 10,000 g for 10 min, washed twice in NaPB pH 5.5, and resuspended in NaPB (pH 5.5) at a final concentration of 4×10^7/ml. A 0.1 ml aliquot of this fungal suspension (4×10^6 CFU) is added to 10 ml of autoclaved and cooled to (42° C.) NaPB pH 5.5 containing 1% w/v of low electroendosmosis type agarose (Sigma). After mixing the fungus in, the agar is poured into Lab-Tek square Petri dishes to form a uniform 1 mm thick layer. Wells with a 3 mm diameter are punched in and filled with 5 μl of control or sample, the plates are incubated for 3 hrs at 37° C. and overlaid with 10 ml of sterile agar maintained at 42° C. The overlay agar is 2× Sabouraud agar. After incubation of 18-24 hrs at 37° C., the diameter of the clear zone surrounding the wells containing an antifungal agent is measured.
(§2) Measurement of the antimicrobial activity of human hemoglobin, its heme-free α and β chains, CNBr-derived fragments of the α and β chains, and synthetic peptides derived therefrom were determined by radial diffusion assay and in some cases by plate assay. […] MIC is estimated by linear extrapolation of data points to an intercept with the x axis.
(§3) Each assay was performed with 3 experimental runs except where indicated. […] The assay method was patterned after that of Lee et al (23).

Escherichia coli MC4100 [1] = test system: Escherichia coli MC4100
Description: as §1
D. Radial diffusion assay for antibiotic activity against Escherichia coli MC4100
A single colony of Escherichia coli MC4100 is inoculated into trypicase soy broth and grown to mid-exponential phase (OD600−0.7). The cultures are washed in NaPB pH 5.5 and dissolved to a final concentration of 5×10^7CFU/ml. A 0.2 ml aliquot of this bacterial suspension (10^7CFU/ml) is added to 10 ml of autoclaved and cooled (to 42° C.) NaPB containing 0.02% Bovine Serum Albumin (BSA) and 0.02% Triton X100., 1% w/v of low electroendosmosis type agarose (Sigma). After mixing the bacteria in, the agarose is poured into Lab-Tek square Petri dishes to form a uniform thick layer. Wells with a 2.7 mm diameter are punched in and filled with 4.5 ul of control or sample, the plates are incubated for 3 hours at 37° C., and overlaid with 10 ml of sterile agar maintained at 42° C. The overlay agar is 6% (w/v) TSB and 1% w/v Bacto-agar. After incubation for 18-24 hours at 37° C., the diameter of the clear zone surrounding the wells containing an antibacterial agent is measured.
as §2, §3

Escherichia coli MC4100 [2] = conditions: pH 7.4, radial diffusion
[3] = test system: Pseudomonas aeroginosa PA01; experiment: Radial diffusion assay for antibiotic activity against Pseudomonas aeroginosa PA01; conditions: Pseudomonas aeruginosa
Description: Staphylococcus aureus was strain RN6390, Pseudomonas aeruginosa was strain PA01, Escherichia coli was strain MC4100, Streptococcus faecalis was ATCC 8043 and Candida albicans was a clinical isolate from the Presbyterian Hospital. C. Radial diffusion assay for antibiotic activity against Pseudomonas aeroginosa PA01 A single colony of Pseudomonas aeroginosa PA01 is inoculated into trypticase soy broth and grown to mid-exponential phase (OD600−0.7). […] A 0.2 ml aliquot of this bacterial suspension (10^7CFU/ml) is added to 10 ml of autoclaved and cooled (to 42° C.) NaPB buffer, 1% w/v of low electroendosmosis type agarose (Sigma). After mixing the bacteria in, the agarose is poured in Lab-Tek square Petri dishes to form a uniform thick layer. Wells with a 2.7 mm diameter are punched in and filled with 4.5 ul of control or sample, the plates are incubated for 3 hours at 37° C., and overlaid with 10 ml of sterile agar maintained at 42° C. The overlay agar is 6% (w/v) TSB and 1% w/v Bacto-agar. After incubation for 18-24 hours at37° C., the diameter of the clear zone surrounding the wells containing an antibacterial agent is measured. Measurement of the antimicrobial activity of human hemoglobin, its heme-free α and β chains, CNBr-derived fragments of the α and β chains, and synthetic peptides derived therefrom were determined by radial diffusion assay and in some cases by plate assay. […] MIC is estimated by linear extrapolation of data points to an intercept with the x axis. Each assay was performed with 3 experimental runs except where indicated. The radial diffusion assay is reliable and gives consistent results when used with the purified or semipurified compositions of the invention. The assay method was patterned after that of Lee et al (23).

[4] = test system: Staphylococcus aureus RN6390; experiment: Radial diffusion assay for antibiotic activity against Staphylococcus aureus RN6390; conditions: pH 5.5, radial diffusion
Description: Staphylococcus aureus was strain RN6390, Pseudomonas aeruginosa was strain PA01, Escherichia coli was strain MC4100, Streptococcus faecalis was ATCC 8043 and Candida albicans was a clinical isolate from the Presbyterian Hospital. B. Radial diffusion assay for antibiotic activity against Staphylococcus aureus RN6390 A single colony of Staphylococcus aureus RN6390 is inoculated into CYGP broth and grown to mid-exponential phase (OD600=0.7). The cultures are washed in NaPB pH 5.5 and dissolved to a final concentration of 5×10^7 CFU/ml. A 0.2 ml aliquot of this bacterial suspension (10^7 CFU) is added to 10 ml of autoclaved and cooled (to 42° C.) NaPB buffer, 1% w/v of low electroendosmosis type agarose (Sigma). After mixing the bacteria in, the agarose is poured in Lab-Tek square Petri dishes to form a uniform thick layer. Wells with a 2.7 mm diameter are punched in and filled with 4.5 ul of control or sample, the plates are incubated for 3 hours at 37° C., and overlaid with 10 ml of sterile agar maintained at 42° C. The overlay agar is 2× CYGP broth and 1% w/v Bacto-agar. After incubation for 18-24 hours at 37° C., the diameter of the clear zone surrounding the wells containing an antibacterial agent is measured. Measurement of the antimicrobial activity of human hemoglobin, its heme-free α and β chains, CNBr-derived fragments of the α and β chains, and synthetic peptides derived therefrom were determined by radial diffusion assay and in some cases by plate assay. […] MIC is estimated by linear extrapolation of data points to an intercept with the x axis. Each assay was performed with 3 experimental runs except where indicated. The radial diffusion assay is reliable and gives consistent results when used with the purified or semipurified compositions of the invention. The assay method was patterned after that of Lee et al (23).

[5] = test system: Streptococcus faecalis ATCC 8043; experiment: Radial diffusion assay for antibiotic activity against Streptococcus faecalis ATCC 8043
Description: as §1
E. Radial diffusion assay for antibiotic activity against Streptococcus faecalis ATCC 8043
A single colony is inoculated in 10 mL of TSB overnight shaking at 37C. Approximately 0.3 ml is added to 10 mL fresh TSB and shaken at 37° C. This is allowed to grow to mid-log phase (OD600=0.6). The culture is washed 2× in NaPB pH 5.5 by spinning at 5000 rpm. for 10 min. OD is rechecked after washing to determine exact bacterial concentration. The washed bacteria are added at a concentration of 10^7/plate to the lower layer (NaPB pH 5.5/1% Low Electroendosmosis agarose). Dilutions of Hemoglobin dilutions in NaPB pH 5.5 are added to the plate, allowed to diffuse in the layer, and incubated in wet box at 37C for 3 hours. Following the incubation, 10 mL of nutrient medium, 6% TSB and 1% Bactoagar, is added as a top layer and plates are incubated in the wet box overnight at […].
as §2
Each assay was performed with 3 experimental runs except where indicated. The radial diffusion assay is reliable and gives consistent results when used with the purified or semipurified compositions of the invention. The assay method was patterned after that of Lee et al (23).

[6] = Candida albicans, pH 5.5, radial diffusion
[7] = Escherichia coli, pH 5.5, radial diffusion
[8] = Streptococcus faecalis, pH 5.5, radial diffusion
[9] = Escherichia coli, Table 2 CNBr cleavage products, pH not given in table (method NaPB pH 5.5)
[10] = Streptacoccus faecalis, Table 2 CNBr cleavage products, pH not given in table (method NaPB pH 5.5)
[11] = Candida albicans, Table 2 CNBr cleavage products, pH not given in table (method NaPB pH 5.5)

Substance	Minimum Inhibitory Concentration (MIC) (Candida albicans; [6])	Minimum Inhibitory Concentration (MIC) ([3]; pH 5.5, radial diffusion)	Minimum Inhibitory Concentration (MIC) (Escherichia coli MC4100 [1]; [7])	Minimum Inhibitory Concentration (MIC) [4]	Minimum Inhibitory Concentration (MIC) [5, 8]	Minimum Inhibitory Concentration (MIC) (Escherichia coli MC4100 [1]; [9])	Minimum Inhibitory Concentration (MIC) [5, 10]	Minimum Inhibitory Concentration (MIC) (Candida albicans; [11])	further results
GNPKVKAHGKKVLGAFS [Peptide I]	–	–	–	–	–	–	–	–	Minimum Inhibitory Concentration (MIC) (Candida albicans; 3 h, pH 5.5): 10 µg/mL; Minimum Inhibitory Concentration (MIC) (Escherichia coli MC4100 [1]; MC4100, pH 5.5): 15 µg/mL
Hemoglobin: Human hemoglobin (MW=64,500), two α and two β chains with four heme groups; crude Hb purchased from Sigma Chemicals	50 to 70 µg/mL	5 µg/mL	1 to 5 µg/mL	4 to 6 µg/mL	200 to 1000 µg/mL	–	–	–	Minimum Inhibitory Concentration (MIC) (Escherichia coli MC4100 [2]): 35 to 100 µg/mL; Minimum Inhibitory Concentration (MIC) ([3]; pH 7.4, radial diffusion): 50 µg/mL
α chains: Heme-free α chain of human hemoglobin, 141 amino acid residues, SEQ ID NO:10, separated by C4 reverse-phase HPLC	7 µg/mL	50 µg/mL	1 to 2 µg/mL	300 µg/mL	3* μg/ml	–	–	–	–
α-1: CNBr cleavage fragment of human hemoglobin α chain, residues 1-32, SEQ ID NO:7	–	–	–	–	–	>100 µg/mL	100 µg/mL	–	–
α-2: CNBr cleavage fragment of human hemoglobin α chain, residues 33-76, SEQ ID NO:8	–	–	–	–	–	>100 µg/mL	–	–	–
α-3: CNBr cleavage fragment of human hemoglobin α chain, residues 77-141, SEQ ID NO:3	–	–	–	–	–	5 to 8 µg/mL	7 µg/mL	10 to 50 µg/mL	–
β chains: Heme-free β chain of human hemoglobin, 146 amino acid residues, SEQ ID NO:1, separated by C4 reverse-phase HPLC	>50 µg/mL	40 to 60 µg/mL	1.5 to 5 µg/mL	10 µg/mL	20 µg/mL	–	–	–	Minimum Inhibitory Concentration (MIC) (Escherichia coli MC4100 [2]): 10 to 30 µg/mL
β-1: CNBr cleavage fragment of human hemoglobin β chain, residues 1-55, SEQ ID NO:9	–	–	–	–	–	>100 µg/mL	>50 µg/mL	25 µg/mL	–
β-2: CNBr cleavage fragment of human hemoglobin β chain, residues 56-146, SEQ ID NO:2	–	–	–	–	–	5 µg/mL	8 µg/mL	25 µg/mL	activity against C. albicans (in words) (Candida albicans; C. albicans): highly active; activity against E. coli (in words) (Escherichia coli MC4100 [1]; E. coli): highly active
